The target in this assay is T1, human recombinant AKR1B1 (hAKR1B1) (Homo sapiens, UniProt P15121).
T1 construct: made in house
The assay is described as follows: Assay of aldose reductase: hAKR1B1-catalysed NADPH-dependent reduction of L-idose or HNE, decrease in absorbance at 340 nm. The assay is classed as biochemical. To be noted: for IC50: 8 mU hAKR1B1, authentic standard; for K’i (ternary enzyme-substrate-inhibitor complex dissociation constant) / Ki: Hanes-Woolf analysis, mean ± SEM; for Ki: read-out: Ki (binary enzyme-inhibitor complex dissociation constant). As for the experimental part: The AKR1B1 activity was determined at 37 °C as previously described, monitoring the decrease in absorbance at 340 nm linked to NADPH oxidation (ε340=6.22 mM^−1 cm^−1) through a Biochrom Libra S60 spectrophotometer. In a 0.25 M sodium phosphate buffer pH 6.8, the standard assay mixture contained 0.18 mM NADPH, 0.4 M ammonium sulphate, 0.5 mM EDTA and 4.7 mM GAL. One unit of enzyme activity is the amount that catalyses the conversion of 1 µmol of substrate/min in the above assay conditions. These assay conditions were also adopted to assess the effectiveness of inhibitors when L-idose or HNE were used, at the indicated concentrations, as substrates instead of GAL. Differential inhibition (DI) refers to the difference between the percentage inhibition observed using L-idose and HNE as substrates in the assay conditions indicated.
The human recombinant AKR1B1 (hAKR1B1) was expressed and purified to electrophoretic homogeneity as previously described. The purified enzyme (specific activity 5.3 U/mg) was stored at −80 °C in a 10 mM sodium phosphate buffer pH 7.0 containing 2 mM DTT and 30% (w/v) glycerol. Before use, the enzyme was extensively dialysed against a 10 mM sodium phosphate buffer pH 7.0.
The protein concentration was determined by the Coomassie blue staining method, using BSA as a standard protein. Statistical analysis was performed using the two-way ANOVA test carried out with Graphpad 6.0 software. IC50 determination was performed using standard statistical software (GraphPad Instat version 6.0, San Diego, CA). Results are reported as the mean of the values and the 95% confidence interval from at least three independent measurements.

[1] abbreviates: substrate 0.04 mM HNE, read-out: IC50 for HNE reduction.
The mark [2] stands for this setting: substrate 0.8 mM L-idose, read-out: IC50 for L-idose reduction.

Broadly, the IC50 is the point on the concentration scale where inhibition reaches its midpoint. A word on the Ki: it is a measure of affinity in units of concentration, obtained from inhibition or displacement.

SMILES strings stand for the structures. Read-outs that look alike come from different tables or passages of the source.

With `CC1(C)C[C@@H](O)[C@]2(C)CC[C@]3(C)C(=CC[C@@H]4[C@@]5(C)CC[C@H](O[C@@H]6O[C@H](C(=O)O)[C@@H](O)[C@H](O)[C@H]6O[C@@H]6O[C@H](CO)[C@H](O)[C@H](O)[C@H]6O[C@@H]6O[C@H](CO)[C@@H](O)[C@H](O)[C@H]6O)[C@](C)(CO)[C@@H]5CC[C@]43C)[C@@H]2C1` [SSBa, soyasaponin Ba (V)], the IC50 under setting [1] is 47 µM and the IC50 under setting [2] is 40 µM. Further, the “K’i (ternary enzyme-substrate-inhibitor complex dissociation constant)” value by setting is: (substrate HNE) 23 ± 4 µM; (substrate L-idose) 24 ± 2 µM. The inhibition constant (Ki) by setting is: (substrate HNE) 65 ± 12 µM; (substrate L-idose) 66 ± 17 µM. Besides, the inhibition model result (with respect to HNE) is “mixed inhibitor” and the inhibition model result (with respect to L-idose) was “mixed inhibitor”.

As for `C[C@@H]1O[C@@H](O[C@H]2[C@H](O[C@H]3[C@H](O[C@H]4CC[C@@]5(C)[C@@H](CC[C@]6(C)[C@@H]5CC=C5[C@@H]7CC(C)(C)C[C@@H](O)[C@]7(C)CC[C@]56C)[C@@]4(C)CO)O[C@H](C(=O)O)[C@@H](O)[C@@H]3O)O[C@H](CO)[C@H](O)[C@@H]2O)[C@H](O)[C@H](O)[C@H]1O` [SSBb, soyasaponin Bb (I)], the IC50 runs as follows: under setting [1], 360 µM; under setting [2], 170 µM. In addition, the “K’i (ternary enzyme-substrate-inhibitor complex dissociation constant)” value is, setting by setting: (substrate HNE) 248 ± 19 µM; (substrate L-idose) 191 ± 11 µM. In addition, the Ki (substrate L-idose) amounted to 176 ± 35 µM. Also, the inhibition model result (with respect to HNE) is recorded as “uncompetitive” and the inhibition model result (with respect to L-idose) was “purely non-competitive inhibitor”.

The values above are taken from PMC6327985, “Soyasaponins from Zolfino bean as aldose reductase differential inhibitors” (Journal of Enzyme Inhibition and Medicinal Chemistry, 2018).
